From patent publication US12581252B2, “Substituted pyrrolo[3,4-b]pyridines as PI3K-α inhibitors” (Relay Therapeutics, Inc., priority 2020, dated 2026)

Target: H1047R PIK3CA enzyme (Homo sapiens, UniProt P42336, H1047R)
Assay: ADP-Glo Biochemical PIK3CA Kinase Assay

Chain of H1047R PIK3CA enzyme (P42336 whole entry H1047R): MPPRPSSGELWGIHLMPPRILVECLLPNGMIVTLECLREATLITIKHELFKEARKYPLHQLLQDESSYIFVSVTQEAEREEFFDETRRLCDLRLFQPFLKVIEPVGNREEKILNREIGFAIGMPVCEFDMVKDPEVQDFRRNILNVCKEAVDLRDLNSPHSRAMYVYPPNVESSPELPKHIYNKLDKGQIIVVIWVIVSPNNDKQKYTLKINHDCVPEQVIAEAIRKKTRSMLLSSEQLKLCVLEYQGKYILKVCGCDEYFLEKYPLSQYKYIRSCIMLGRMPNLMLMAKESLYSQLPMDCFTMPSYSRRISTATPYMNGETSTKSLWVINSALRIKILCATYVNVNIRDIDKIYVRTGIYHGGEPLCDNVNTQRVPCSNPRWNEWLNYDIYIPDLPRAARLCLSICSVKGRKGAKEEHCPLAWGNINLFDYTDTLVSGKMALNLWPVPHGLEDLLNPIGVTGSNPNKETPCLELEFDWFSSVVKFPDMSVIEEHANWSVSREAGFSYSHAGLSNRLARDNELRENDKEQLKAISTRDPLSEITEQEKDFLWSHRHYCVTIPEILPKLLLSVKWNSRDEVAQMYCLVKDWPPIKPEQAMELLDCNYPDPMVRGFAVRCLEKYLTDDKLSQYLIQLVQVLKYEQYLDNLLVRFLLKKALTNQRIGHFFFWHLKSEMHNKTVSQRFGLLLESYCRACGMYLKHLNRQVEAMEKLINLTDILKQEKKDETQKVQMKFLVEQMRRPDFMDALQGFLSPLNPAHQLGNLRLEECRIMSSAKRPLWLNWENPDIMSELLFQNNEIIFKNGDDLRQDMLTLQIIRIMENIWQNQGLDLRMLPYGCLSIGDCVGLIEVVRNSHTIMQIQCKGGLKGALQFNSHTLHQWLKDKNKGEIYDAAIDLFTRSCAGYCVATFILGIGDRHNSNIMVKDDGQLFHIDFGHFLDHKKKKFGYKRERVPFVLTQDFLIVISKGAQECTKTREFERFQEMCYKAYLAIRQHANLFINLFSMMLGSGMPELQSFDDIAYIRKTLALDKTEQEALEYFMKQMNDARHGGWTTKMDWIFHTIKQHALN
Chain of H1047R PIK3CA enzyme (P27986 whole entry partner): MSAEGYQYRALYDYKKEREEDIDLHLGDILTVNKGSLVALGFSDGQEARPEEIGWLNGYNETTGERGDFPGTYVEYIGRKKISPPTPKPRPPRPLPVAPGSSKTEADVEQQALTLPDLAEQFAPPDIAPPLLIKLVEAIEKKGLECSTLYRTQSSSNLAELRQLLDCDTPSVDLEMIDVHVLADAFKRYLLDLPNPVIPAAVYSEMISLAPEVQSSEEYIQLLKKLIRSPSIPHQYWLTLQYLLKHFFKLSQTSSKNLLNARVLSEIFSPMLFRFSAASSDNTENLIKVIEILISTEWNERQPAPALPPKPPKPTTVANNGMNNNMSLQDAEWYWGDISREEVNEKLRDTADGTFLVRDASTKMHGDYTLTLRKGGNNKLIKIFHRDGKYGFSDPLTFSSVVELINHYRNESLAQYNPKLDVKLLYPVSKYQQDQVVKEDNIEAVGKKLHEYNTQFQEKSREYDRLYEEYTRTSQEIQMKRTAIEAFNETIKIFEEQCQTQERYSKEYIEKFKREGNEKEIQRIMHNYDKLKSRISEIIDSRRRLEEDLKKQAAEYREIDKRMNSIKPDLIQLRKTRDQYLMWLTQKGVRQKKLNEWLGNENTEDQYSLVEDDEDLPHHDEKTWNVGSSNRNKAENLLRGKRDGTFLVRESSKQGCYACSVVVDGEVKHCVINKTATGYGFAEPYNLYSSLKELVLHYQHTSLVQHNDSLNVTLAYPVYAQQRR

Compound	IC50
O=C1N[C@@H](c2cc(F)ccc2Cl)c2c(NC(=O)N3C[C@@](O)(C(F)(F)F)c4cc(F)ccc43)ccc(Cl)c21 (single isomer, unassigned) [Compound I-2621]	500 to 1000 nM
N#CCc1cc(NC(=O)N2C[C@@](O)(C(F)(F)F)c3cc(F)ccc32)c2c(c1)C(=O)N[C@H]2c1cc(F)ccc1Cl (single isomer, unassigned) [Compound I-2624]	1000 to 10000 nM
N#CCc1cc(NC(=O)N2C[C@](O)(C(F)(F)F)c3cc(F)ccc32)c2c(c1)C(=O)N[C@H]2c1cc(F)ccc1Cl (single isomer, unassigned) [Compound I-2625]	1000 to 10000 nM
N#CCc1cc(NC(=O)N2C[C@@](O)(C(F)(F)F)c3cc(F)ccc32)c2c(c1)C(=O)N[C@@H]2c1cc(F)ccc1Cl (single isomer, unassigned) [Compound I-2626]	500 to 1000 nM
O=C1N[C@@H](c2cc(F)ccc2Cl)c2c(NC(=O)N3C[C@@](O)(C(F)(F)F)c4cc(F)ccc43)cc(F)cc21 (single isomer, unassigned) [Compound I-2628]	1000 to 10000 nM
O=C1N[C@H](c2cc(F)ccc2Cl)c2c(NC(=O)N3C[C@@](O)(C(F)(F)F)c4cc(F)ccc43)cc(F)cc21 (single isomer, unassigned) [Compound I-2629]	1000 to 10000 nM
O=C1N[C@H](c2cc(F)ccc2Cl)c2c(NC(=O)N3C[C@](O)(C(F)(F)F)c4cc(F)ccc43)cc(F)cc21 (single isomer, unassigned) [Compound I-2631]	≤ 100 nM
O=C1N[C@H](c2cc(F)ccc2Cl)c2c(NC(=O)N3C[C@@](O)(C(F)F)c4cc(F)ccc43)cc(F)cc21 (single isomer, unassigned) [Compound I-2632]	1000 to 10000 nM
O=C1N[C@@H](c2cc(F)ccc2Cl)c2c(NC(=O)N3C[C@@](O)(C(F)F)c4cc(F)ccc43)cc(F)cc21 (single isomer, unassigned) [Compound I-2633]	1000 to 10000 nM
O=C1N[C@H](c2cc(F)ccc2Cl)c2c(NC(=O)N3C[C@](O)(C(F)F)c4cc(F)ccc43)cc(F)cc21 (single isomer, unassigned) [Compound I-2634]	1000 to 10000 nM
Cc1cn(-c2cc(NC(=O)N3C[C@@](O)(C(F)(F)F)c4cc(F)ccc43)c3c(c2)C(=O)N[C@@H]3c2cc(F)ccc2Cl)cn1 (single isomer, unassigned) [Compound I-2636]	1000 to 10000 nM
Cc1cn(-c2cc(NC(=O)N3C[C@@](O)(C(F)(F)F)c4cc(F)ccc43)c3c(c2)C(=O)N[C@H]3c2cc(F)ccc2Cl)cn1 (single isomer, unassigned) [Compound I-2638]	1000 to 10000 nM
Cc1cn(-c2cc(NC(=O)N3C[C@](O)(C(F)(F)F)c4cc(F)ccc43)c3c(c2)C(=O)N[C@H]3c2cc(F)ccc2Cl)cn1 (single isomer, unassigned) [Compound I-2639]	10000 to 100000 nM
CNc1cc(NC(=O)N2C[C@](O)(C(F)(F)F)c3cc(F)ccc32)c2c(c1)C(=O)N[C@@H]2c1cc(F)ccc1Cl (single isomer, unassigned) [Compound I-2641]	500 to 1000 nM
CNc1cc(NC(=O)N2C[C@@](O)(C(F)(F)F)c3cc(F)ccc32)c2c(c1)C(=O)N[C@H]2c1cc(F)ccc1Cl (single isomer, unassigned) [Compound I-2642]	100 to 500 nM
CNc1cc(NC(=O)N2C[C@](O)(C(F)(F)F)c3cc(F)ccc32)c2c(c1)C(=O)N[C@H]2c1cc(F)ccc1Cl (single isomer, unassigned) [Compound I-2643]	1000 to 10000 nM
CNc1cc(NC(=O)N2C[C@@](O)(C(F)(F)F)c3cc(F)ccc32)c2c(n1)C(=O)N[C@@H]2c1cc(F)ccc1Cl (single isomer, unassigned) [Compound I-2645]	1000 to 10000 nM
CNc1cc(NC(=O)N2C[C@@](O)(C(F)(F)F)c3cc(F)ccc32)c2c(n1)C(=O)N[C@H]2c1cc(F)ccc1Cl (single isomer, unassigned) [Compound I-2646]	500 to 1000 nM
CNc1cc(NC(=O)N2C[C@](O)(C(F)(F)F)c3cc(F)ccc32)c2c(n1)C(=O)N[C@H]2c1cc(F)ccc1Cl (single isomer, unassigned) [Compound I-2647]	100 to 500 nM
CC(C)(CN)n1cc(-c2cc(NC(=O)N3C[C@](O)(C(F)(F)F)c4cc(F)ccc43)c3c(c2)C(=O)N[C@@H]3c2cc(F)ccc2Cl)cn1 (single isomer, unassigned) [Compound I-2650]	500 to 1000 nM
CC(C)(CN)n1cc(-c2cc(NC(=O)N3C[C@@](O)(C(F)(F)F)c4cc(F)ccc43)c3c(c2)C(=O)N[C@H]3c2cc(F)ccc2Cl)cn1 (single isomer, unassigned) [Compound I-2651]	1000 to 10000 nM
CC(C)(CN)n1cc(-c2cc(NC(=O)N3C[C@](O)(C(F)(F)F)c4cc(F)ccc43)c3c(c2)C(=O)N[C@H]3c2cc(F)ccc2Cl)cn1 (single isomer, unassigned) [Compound I-2652]	1000 to 10000 nM
O=C1N[C@H](c2cc(F)ccc2Cl)c2c(NC(=O)N3C[C@](O)(C(F)(F)F)c4cc(F)ccc43)cc(C3COC3)cc21 (single isomer, unassigned) [Compound I-2653]	10000 to 100000 nM
O=C1N[C@H](c2cc(F)ccc2Cl)c2c(NC(=O)N3C[C@@](O)(C(F)(F)F)c4cc(F)ccc43)cc(C3COC3)cc21 (single isomer, unassigned) [Compound I-2654]	1000 to 10000 nM

Compound	IC50
O=C1N[C@@H](c2cc(F)ccc2Cl)c2c(NC(=O)N3C[C@@](O)(C(F)(F)F)c4cc(F)ccc43)cc(C3COC3)cc21 (single isomer, unassigned) [Compound I-2656]	500 to 1000 nM
CC1(Cc2cc(NC(=O)N3C[C@@](O)(C(F)(F)F)c4cc(F)ccc43)c3c(c2)C(=O)N[C@@H]3c2cc(F)ccc2Cl)COC1 (single isomer, unassigned) [Compound I-2658]	1000 to 10000 nM
CC1(Cc2cc(NC(=O)N3C[C@](O)(C(F)(F)F)c4cc(F)ccc43)c3c(c2)C(=O)N[C@H]3c2cc(F)ccc2Cl)COC1 (single isomer, unassigned) [Compound I-2659]	1000 to 10000 nM
CC1(Cc2cc(NC(=O)N3C[C@@](O)(C(F)(F)F)c4cc(F)ccc43)c3c(c2)C(=O)N[C@H]3c2cc(F)ccc2Cl)COC1 (single isomer, unassigned) [Compound I-2660]	10000 to 100000 nM
Cc1nccn1-c1cc(NC(=O)N2C[C@](O)(C(F)(F)F)c3cc(F)ccc32)c2c(c1)C(=O)N[C@@H]2c1cc(F)ccc1Cl (single isomer, unassigned) [Compound I-2662]	1000 to 10000 nM
Cc1nccn1-c1cc(NC(=O)N2C[C@@](O)(C(F)(F)F)c3cc(F)ccc32)c2c(c1)C(=O)N[C@H]2c1cc(F)ccc1Cl (single isomer, unassigned) [Compound I-2663]	1000 to 10000 nM
Cc1nccn1-c1cc(NC(=O)N2C[C@](O)(C(F)(F)F)c3cc(F)ccc32)c2c(c1)C(=O)N[C@H]2c1cc(F)ccc1Cl (single isomer, unassigned) [Compound I-2664]	1000 to 10000 nM
O=C1N[C@H](c2cc(F)ccc2Cl)c2c(NC(=O)N3C[C@](O)(C(F)(F)F)c4cc(F)ccc43)cc(N3CCCC3=O)cc21 (single isomer, unassigned) [Compound I-2666]	1000 to 10000 nM
O=C1N[C@@H](c2cc(F)ccc2Cl)c2c(NC(=O)N3C[C@@](O)(C(F)(F)F)c4cc(F)ccc43)cc(N3CCCC3=O)cc21 (single isomer, unassigned) [Compound I-2667]	1000 to 10000 nM
O=C1N[C@@H](c2cc(F)ccc2Cl)c2c(NC(=O)N3C[C@](O)(C(F)(F)F)c4cc(F)ccc43)cc(N3CCCC3=O)cc21 (single isomer, unassigned) [Compound I-2668]	10000 to 100000 nM
N#Cc1cnn(Cc2cc(NC(=O)N3C[C@@](O)(C(F)(F)F)c4cc(F)ccc43)c3c(c2)C(=O)N[C@@H]3c2cc(F)ccc2Cl)c1 (single isomer, unassigned) [Compound I-2670]	500 to 1000 nM
N#Cc1cnn(Cc2cc(NC(=O)N3C[C@](O)(C(F)(F)F)c4cc(F)ccc43)c3c(c2)C(=O)N[C@H]3c2cc(F)ccc2Cl)c1 (single isomer, unassigned) [Compound I-2671]	500 to 1000 nM
N#Cc1cnn(Cc2cc(NC(=O)N3C[C@@](O)(C(F)(F)F)c4cc(F)ccc43)c3c(c2)C(=O)N[C@H]3c2cc(F)ccc2Cl)c1 (single isomer, unassigned) [Compound I-2672]	10000 to 100000 nM
O=C1N[C@H](c2cc(F)ccc2Cl)c2c(NC(=O)N3C[C@](O)(C(F)(F)F)c4cc(F)ccc43)cc(N3CCOC3=O)cc21 (single isomer, unassigned) [Compound I-2674]	1000 to 10000 nM
O=C1N[C@@H](c2cc(F)ccc2Cl)c2c(NC(=O)N3C[C@@](O)(C(F)(F)F)c4cc(F)ccc43)cc(N3CCOC3=O)cc21 (single isomer, unassigned) [Compound I-2675]	1000 to 10000 nM
O=C1N[C@@H](c2cc(F)ccc2Cl)c2c(NC(=O)N3C[C@](O)(C(F)(F)F)c4cc(F)ccc43)cc(N3CCOC3=O)cc21 (single isomer, unassigned) [Compound I-2676]	10000 to 100000 nM
CNc1cc(NC(=O)N2C[C@](O)(C(F)F)c3cc(F)ccc32)c2c(c1)C(=O)N[C@H]2c1cc(F)ccc1Cl (single isomer, unassigned) [Compound I-2678]	1000 to 10000 nM
CNc1cc(NC(=O)N2C[C@@](O)(C(F)F)c3cc(F)ccc32)c2c(c1)C(=O)N[C@@H]2c1cc(F)ccc1Cl (single isomer, unassigned) [Compound I-2679]	10000 to 100000 nM
CNc1cc(NC(=O)N2C[C@@](O)(C(F)F)c3cc(F)ccc32)c2c(c1)C(=O)N[C@H]2c1cc(F)ccc1Cl (single isomer, unassigned) [Compound I-2680]	10000 to 100000 nM
[2H][C@@]1(c2cc(F)ccc2Cl)NC(=O)c2cccc(NC(=O)N3C[C@](O)(C(F)(F)F)c4cc(F)ccc43)c21 (single isomer, unassigned) [Compound I-2681]	1000 to 10000 nM
[2H][C@]1(c2cc(F)ccc2Cl)NC(=O)c2cccc(NC(=O)N3C[C@@](O)(C(F)(F)F)c4cc(F)ccc43)c21 (single isomer, unassigned) [Compound I-2683]	1000 to 10000 nM
[2H][C@]1(c2cc(F)ccc2Cl)NC(=O)c2cccc(NC(=O)N3C[C@](O)(C(F)(F)F)c4cc(F)ccc43)c21 (single isomer, unassigned) [Compound I-2684]	10000 to 100000 nM
O=C1N[C@@H](c2ccccc2Cl)c2c(NC(=O)N3C[C@@](O)(C(F)(F)F)c4cc(F)ccc43)cccc21 (single isomer, unassigned) [Compound I-2685]	10000 to 100000 nM
